Measurements: patent publication US20260060982A1, “USE OF BTK INHIBITOR AND SINGLE-DOSE DRUG” (HUBEI BIO-PHARMACEUTICAL INDUSTRIAL TECHNOLOGICAL INSTITUTE …, priority 2023, published 2026)

What was measured:
[1] = test system: anti-DNP IgE-induced passive cutaneous anaphylaxis in BALB/c mice; assay: Passive cutaneous anaphylaxis (PCA) model in mice induced with anti-DNP IgE; assay type: in vivo
Description: Passive cutaneous anaphylaxis test, also known as PCA reaction, is a local allergic reaction caused by antibodies that bind to the same or different animal tissues. The PCA animal model in the present disclosure was a passive sensitization model in which IgE binds to specific receptors on skin mast cells. When allergens were stimulated, local mast cells released allergic mediators, thereby increasing local vascular permeability. […] The specific steps were as follows:
The PCA model in mice was induced using anti-DNP IgE. Specifically, BALB/c mice were divided into 9 groups, namely, a normal control group (no administration, injection, or feeding of any solvent), a model group (no administration, injection, or feeding of any solvent), a prednisone group (10 mg/kg, administered for 3 consecutive days, QD (once a day), prednisone concentration of 1 mg/mL, and an administration volume of 10 mL/kg), a cetirizine group (20 mg/kg, administered for 3 consecutive days, QD, cetirizine concentration of 2 mg/mL, and an administration volume of 10 mL/kg), a low-dose group and a medium-dose group for the test substance LOU-064 (15 mg/kg and 45 mg/kg, administered for 3 consecutive days, BID (twice a day), LOU-064 concentrations of 1.5 mg/mL and 4.5 mg/mL, and an administration volume of 10 mL/kg), and a low-dose group, a medium-dose group, and a high-dose group for compound (I) (15 mg/kg, 45 mg/kg, and 90 mg/kg, administered for 3 consecutive days, BID, compound (I) concentrations of 1.5 mg/mL, 4.5 mg/mL, and 9 mg/mL, and an administration volume of 10 mL/kg), with 9 mice in each group, administered by gavage for a total of 4 days. On day 3 of the administration, anti-DNP IgE (Sigma-Aldrich) was injected into the left ears of 8 groups of mice (no normal control group), and the same volume of PBS was injected into the right ears of 8 groups and the left and right ears of the normal control group to allow it to bind to mast cells. Then, 24 hours after the fourth day of anti-DNP IgE injection, a mixed solution of antigen (DNP-HAS, Sigma) and pigment Evan's Blue (Sigma) (0.25 mL/mouse, i.v.) was injected into the tail vein (the normal control group was injected with the same volume of the mixed solution of antigen and pigment Evan's Blue). The antigen reacted with the antibody attached to the mast cells, causing a local allergic reaction, increased local vascular permeability, and pigment penetration into the tissue. The reaction intensity was determined by measuring the local pigment content 30 minutes later. The dye was extracted from the left and right ears, and the absorbance of Evan's blue was measured at a specific wavelength. […] The efficacy effects of each test substances in the PCA animal model were evaluated.

[2] = test system: PG-PS-induced arthritis in Lewis rats; assay: PG-PS-induced arthritis model in rats; assay type: in vivo
Description: Intraperitoneal injection of PG-PS suspension can effectively induce chronic, erosive, and relapsing symptoms similar to human rheumatoid arthritis in rats, and is often used to evaluate the in vivo effectiveness of medicaments in the early discovery of arthritis medicaments. The specific steps were as follows:
On day 0, Lewis rats were randomly divided into 6 groups, with 5 rats in the first group and 10 rats in each group from the second group to the sixth group. All rats in the second to sixth groups were intraperitoneally injected with PG-PS (Lee Laboratories, PG-PS 10S, 5.1 mg/ml Rhamnose) to establish the model. The PG-PS injection dose v=15 μg/g×bw (rat weight, in g)/5.1 μg/μL.
On day 1, the model rats (the second to sixth groups) were randomly redivided into 5 groups, with 10 rats in each group. The animals in each group were given the corresponding medicament or vehicle by gavage once a day until the 29th day. […] Clinical observations and clinical scoring were performed daily during the administration period. The ankle diameter of each animal after modeling was subtracted from its ankle diameter before modeling to obtain the ankle diameter difference (delta ankle diameter). The area under the curve (AUC) was calculated by analyzing the ankle diameter difference of each animal in each group. The inhibition rate of each administration group relative to the blank vehicle control was calculated by the average AUC between groups.
Pathology: On day 30, the rats were euthanized. The two hind limbs of rats were stained with toluidine blue to evaluate the degree of joint damage in terms of inflammatory cell lesions, pannus formation, cartilage damage, bone resorption, and periosteal new bone formation, and the severity was scored on a scale from 0 to 7.

[3] = test system: collagen-induced arthritis in DBA/1 mice; assay: Collagen-induced arthritis (CIA) model in mice; assay type: in vivo
Description: Clinical symptoms of arthritis were induced in mice by injecting collagen emulsion into the tail of mice. The specific steps were as follows:
DBA/1 mice were randomly divided into 6 groups, with 10 mice in each group except the blank control group (5 mice). […] The day of the first immunization was recorded as day 0, and the subsequent days were marked in sequence. DBA/1 mice were anesthetized with isoflurane and injected subcutaneously with 50 μl of the prepared collagen emulsion (containing 200 μg of CII) at the tail (2 cm to 3 cm from the base of the tail). On day 21, the same volume of collagen emulsion was injected into the tail in the same way.
On day 28, when the average clinical score reached 1 to 2, the mice were randomly redivided into 4 treatment groups (10 mice per group) and a blank vehicle control group (10 mice per group) according to body weight and score. […] The administration was performed once daily for 14 days by gavage at 10 mL/kg. After the administration, the clinical score curve of each animal in each group was analyzed to calculate the area under the curve (AUC). The inhibition rate of each administration group relative to the blank vehicle control was calculated based on the average AUC between groups.
Clinical observation: From 7 days before immunization to 21 days after immunization, the basic health status and weight changes of DBA/1 mice were observed daily (recorded twice a week). After day 22, the health status, disease incidence, and weight changes of the mice were observed daily (recorded every two days) until the end of the experiment.
When mice began to develop symptoms of arthritis (clinical symptoms of arthritis appeared), they were scored on a scale from 0 to 4 based on the severity of the lesions (redness, swelling, joint deformation), with a maximum score of 4 for each limb and a maximum score of 16 for each animal. The scoring was performed at least three times a week.
Pathology: On day 42, mice were euthanized. The two hind limbs of the mice were taken, soaked in 10% formalin solution, decalcified with formic acid solution, embedded in paraffin, sectioned, stained with hematoxylin-eosin (HE), and observed under a microscope. The degree of joint damage was evaluated from four aspects: inflammatory cell infiltration, pannus formation, cartilage damage, and bone resorption, and scored on a scale from 0 to 4.

[4] = test system: IgM-induced calcium signaling in RAMOS cells; assay: Antagonism of IgM-induced calcium signaling in RAMOS cells (FLIPR); assay type: cell-based; conditions: Fluo-4D dye
Description: The specific test steps were as follows:
A. Ramos cells (ECACC) were seeded in a 384 experimental plate using cell culture medium (RPMI 1640 medium supplemented with 10% fetal bovine serum) at a density of 5×10^6 cells/mL, 20 μL per well.
C. The cell plate and the compound plate were placed into FLIPR. 10 μL was transferred from the compound plate by the FLIPR instrument and added to the cell plate. The cell plate was removed and incubated in a 37° C. incubator for 1 h.
D. One hour later, 40 μL of Fluo-4D dye (Life Technologies, formulated as 0.5× with 40 mL of HBSS and HEPES buffer) was added to the cell plate and incubated at 37° C. for 50 min.
E. 10 μL of IgM at 8×EC80 concentration was added, and the plate was read using FLIPR.
F. The IC50 results of the compounds were analyzed using EXCEL and Prism statistical software.

SMILES: C[C@]12C=CC(=O)C=C1CC[C@@H]1[C@@H]2C(=O)C[C@@]2(C)[C@H]1CC[C@]2(O)C(=O)CO [Prednisone, prednisone, reference compound]
- Concentration of Evan's Blue, Left ear, Average value ([1]; 10 mg/kg QD by gavage): 25.36 µg/mL

SMILES: C=CC(=O)Nc1cccc(Nc2nc(Nc3ccc(OCCOC)cc3)ncc2F)c1 [CC-292, reference compound]
- inhibition rate (AUC of ankle diameter difference vs blank vehicle control) ([2]; 3 mg/kg once a day by gavage until the 29th day): −0.1%
- joint tissue lesions (pathology) ([2]; 3 mg/kg, day 30): more severe
- histopathological score compared with the blank vehicle control group ([3]; 3 mg/kg): not significantly different
- inflammation inhibition rate (AUC of clinical score vs blank vehicle control) ([3]; 3 mg/kg once daily by gavage for 14 days): 29.1%
- pathology of foot joint bone tissue ([3]; 3 mg/kg, day 42): certain inflammation and more bone tissue damage
- IC50 [4]: 171 ± 4.03 nM

SMILES: C=CC(=O)N(C)CCOc1c(N)ncnc1-c1cc(F)cc(NC(=O)c2ccc(C3CC3)cc2F)c1C [LOU-064, reference compound]
- Concentration of Evan's Blue, Left ear, Average value ([1]; 15 mg/kg BID by gavage): 24.45 µg/mL
- Concentration of Evan's Blue, Left ear, Average value ([1]; 45 mg/kg BID by gavage): 17.24 µg/mL

SMILES: O=C(O)COCCN1CCN(C(c2ccccc2)c2ccc(Cl)cc2)CC1 (stereo not shown) [Cetirizine, cetirizine, reference compound]
- Concentration of Evan's Blue, Left ear, Average value ([1]; 20 mg/kg QD by gavage): 22.70 µg/mL
